Laboratory results as given in PubChem BioAssay (NCI).
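Exposure lasted 48 hours, with cells grown in 96-well plates and compounds tested at five concentrations. GI50: concentration for 50% inhibition of growth. At the TGI there is no net growth.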

Columns and labels:
Experiment in all cases: inhibition of tumour cell growth, NCI panel, 48 h
MCF7 breast = system: MCF7 breast
DU-145 prostate = system: DU-145 prostate
NCI/ADR-RES ovarian = system: NCI/ADR-RES ovarian
HOP-18 NSCLC = system: HOP-18 NSCLC
KM20L2 colon = system: KM20L2 colon
DMS 114 small cell lung = system: DMS 114 small cell lung
MDA-N = system: MDA-N
LXFL 529 NSCLC = system: LXFL 529 NSCLC
RXF-631 renal = system: RXF-631 renal

| Structure (SMILES) | GI50 (MCF7 breast) [µM] | TGI (MCF7 breast) [µM] | GI50 (DU-145 prostate) [µM] | TGI (DU-145 prostate) [µM] | GI50 (NCI/ADR-RES ovarian) [µM] | TGI (NCI/ADR-RES ovarian) [µM] | TGI (HOP-18 NSCLC) [µM] | TGI (KM20L2 colon) [µM] | TGI (DMS 114 small cell lung) [µM] | TGI (MDA-N) [µM] | TGI (LXFL 529 NSCLC) [µM] | TGI (RXF-631 renal) [µM] |
| --- | --- | --- | --- | --- | --- | --- | --- | --- | --- | --- | --- | --- |
| Cc1cc(N(CCCl)CCCl)ccc1C=Nc1ccc(-c2csc(Cc3ccccc3)n2)cc1 | 4.66 | 43.3 | 7.98 | 62.3 | 5.18 | 34 | – | – | – | – | – | – |
| CCCC(=O)OC1C(C(O)CO)OC2OC(C)(C)OC21 (stereo not given) | – | > 100 | – | > 100 | – | > 100 | > 100 | > 100 | > 100 | > 100 | – | – |
| CC#C[C@]1(O)CC[C@H]2[C@@H]3CCC4=CC(=O)CCC4=C3[C@@H](c3ccc4c(c3)OCO4)C[C@@]21C | 77.2 | > 1000 | 138 | 391 | 92.4 | > 1000 | – | – | – | – | – | – |
| O=C(O)/C=C\C(=O)N1C/C(=C\c2ccccc2Cl)C(=O)/C(=C/c2ccccc2Cl)C1 | 1.09 | 10.4 | 2.43 | 5.48 | 4.08 | 22.5 | – | – | – | – | – | – |
| NC1C[C@H](n2cc(/C=C/Br)c(=O)[nH]c2=O)C[C@@H]1CO (stereo not given in full) | – | – | – | – | – | – | > 100 | > 100 | > 100 | – | > 100 | – |
| COc1cccc2c1c(C(=O)C(=O)Nc1cc(C)no1)cn2Cc1ccc(F)cc1 | 3.27 | > 90.6 | 19.4 | > 100 | 3.78 | > 24 | – | – | – | – | – | – |
| COc1ccc(-c2nn3c(-c4cc(F)c(Cl)cc4Cl)nnc3s2)cc1 | 11.4 | > 100 | 29.1 | 83 | 21.2 | 99.7 | – | – | – | – | – | – |
| COc1cc(OC(C)=O)cc2c(OC(C)=O)ccc(OC(C)=O)c12 | – | – | – | – | – | – | – | > 100 | – | – | > 100 | – |
| O=C1/C(=C\c2c[nH]c3ccccc23)c2ccccc2N1c1c(Cl)cccc1Cl | 1.74 | 3.76 | 1.74 | 3.28 | – | – | – | – | – | – | – | – |
| Nn1c(NNC(=O)C(=O)Nc2cc(Cl)c(Cl)cc2Cl)n[nH]c1=S | – | – | – | – | – | – | > 100 | > 100 | > 100 | – | > 100 | – |
| CCCNC1=C(C(=O)OCC)C(=O)CO1 | – | – | – | – | – | – | – | > 100 | > 100 | – | > 100 | > 100 |
| COc1cc2c(c(OC)c1)C1c3ccccc3NC(=O)N1CC2 (stereo not given) | 3.13 | > 100 | 4.84 | > 100 | – | – | – | – | – | – | – | – |
| CCCCCCCCN=C(N)c1ccc(N2CCN(c3ccc(C(N)=NCCCCCCCC)cc3)CC2)cc1 | – | – | 2.42 | 18 | > 50 | > 50 | – | – | – | – | – | – |
| COc1ccc(-c2nc3sc4c(c3c(=O)[nH]2)CCCCCC4)cc1 | – | – | > 33.2 | > 33.2 | 2.16 | > 33.2 | – | – | – | – | – | – |
| O=C(N/C(=C\c1ccc2c(c1)OCO2)c1nc2ccccc2[nH]1)c1ccccc1 | – | – | – | – | – | – | > 100 | > 89.7 | 6.08 | – | 97.4 | – |
| CC1=Nc2ccccc2S/C1=C(/C)NNC(=O)C(N)=O | – | – | – | – | – | – | > 100 | > 100 | > 100 | – | > 100 | – |
| O=C(COc1ccc2c(=O)cc(-c3ccccc3)oc2c1)N1CCN(c2ccccc2)CC1 | – | – | – | – | – | – | > 100 | > 100 | > 100 | – | > 100 | – |

| Structure (SMILES) | GI50 (MCF7 breast) [µM] | TGI (MCF7 breast) [µM] | GI50 (DU-145 prostate) [µM] | TGI (DU-145 prostate) [µM] | GI50 (NCI/ADR-RES ovarian) [µM] | TGI (NCI/ADR-RES ovarian) [µM] | TGI (HOP-18 NSCLC) [µM] | TGI (KM20L2 colon) [µM] | TGI (DMS 114 small cell lung) [µM] | TGI (MDA-N) [µM] | TGI (LXFL 529 NSCLC) [µM] | TGI (RXF-631 renal) [µM] |
| --- | --- | --- | --- | --- | --- | --- | --- | --- | --- | --- | --- | --- |
| O=c1cc(-c2ccccc2)[nH]c2ccccc12 | 0.383 | > 100 | 0.829 | > 71.4 | 0.483 | – | – | – | – | – | – | – |
| OC(c1cc(-c2ccccc2)nc2ccc(Cl)cc12)C1CCCCN1 (stereo not given) | 1.67 | 3.14 | 3.07 | 8.74 | 2.25 | 5.35 | – | – | – | – | – | – |
| CN1CCC(n2cnc(-c3ccc(F)cc3)c2-c2ccnc(NCCO)n2)CC1 | 3.78 | > 25 | 22.3 | > 25 | > 25 | > 25 | – | – | – | – | – | – |
| Nc1ccccc1C#C/C=C\C#Cc1cccs1 | 2.34 | > 100 | 10.2 | 31.6 | 8.69 | 27.7 | – | – | – | – | – | – |
| NCCOCCOCCNc1nc(Cc2ccccc2)nc(NCCCN2CCCC2=O)n1 | > 100 | > 100 | > 100 | > 100 | > 100 | > 100 | – | – | – | – | – | – |
| CN(C)CCCNC(CC#N)CCC#N (stereo not given) | – | > 10 | – | > 10 | – | > 10 | – | – | – | > 10 | – | – |
| CC(C)c1cc(-c2n[nH]c(=O)n2-c2ccc3c(ccn3C)c2)c(O)cc1O | < 0.0161 | 17.3 | < 0.0237 | 23 | 0.0409 | > 100 | – | – | – | – | – | – |
| N#C/C(=C\c1ccc(O)c(O)c1)C(N)=S | – | – | – | – | – | – | > 100 | > 100 | > 100 | – | > 100 | – |
| CCCCC(CC)CN=C(N)NC(N)=NCCCCCCN=C(N)NC(N)=NCC(CC)CCCC (stereo not given) | – | – | 3.26 | 11.4 | 10.4 | 33.6 | – | – | – | – | – | – |
| CC1C=C(OC(=O)c2ccccc2)C(=O)C(n2cc(F)c(=O)[nH]c2=O)O1 (stereo not given) | – | – | – | – | – | – | > 100 | > 100 | > 100 | – | > 100 | – |
| COc1ccc(-c2c3c(N)nc(-c4ccncc4)nc3nc3c2c(C)nn3-c2ccccc2)cc1 | 4.28 | > 100 | 7.39 | > 100 | 19.7 | > 100 | – | – | – | – | – | – |
| COc1ccc(/C=C(/C#N)C(N)=O)cc1OC | – | > 100 | – | > 100 | – | > 100 | – | – | – | > 100 | – | – |
| Cc1ccccc1[P+](Cc1ccccc1)(c1ccccc1)c1ccccc1 | 0.89 | > 100 | 3.69 | > 100 | > 100 | > 100 | – | – | – | – | – | – |
| O=C(CN1CCOCC1)Nc1nc(-c2ccc(Cl)cc2)cs1 | – | – | – | – | – | – | > 100 | – | 65.8 | – | – | – |
| Cc1c(C(=O)C/C(=N\O)C(=O)Nc2cc(Cl)c(Cl)cc2Cl)[n+](=O)c2ccccc2n1[O-] | – | – | – | – | – | – | 82.4 | 41.4 | 19.9 | – | 30.8 | – |
| CC1SC2=NC3=C(c4ccccc4C3=O)C(c3ccc(F)cc3)N2C1=O (stereo not given) | – | – | – | – | – | – | – | > 100 | > 100 | – | > 100 | – |
